In US20180179386A1, “NANOGEL COMPOUND” (priority 2015, published 2018):

System: DOXO resistant cell line KB-V1
Assay: Cytotoxicity of DOXO-loaded nanogel compounds vs free DOXO, MTT assay, resistant cells
Format: cell-based
Details: free DOXO up to 10 μM external concentration
From the text: In order to use the nanogel compounds for anticancer therapy, the cytotoxicity of the DOXO-loaded nanogel compounds compared with free DOXO was studied in two different cell lines: sensitive-type HeLa cells and DOXO resistant cell line KB-V1. Thereby, squares denote PNIPAM-dPG/AMPS, circles denote PNIPAM-dPG/DMAEM, and triangles denote free DOXO.

With `COc1cccc2c1C(=O)c1c(O)c3c(c(O)c1C2=O)C[C@@](O)(C(=O)CO)C[C@@H]3O[C@H]1C[C@H](N)[C@H](O)[C@H](C)O1` [DOXO, doxorubicin] the cytotoxicity was “no effect”.
